Here are results for two substances from US9012036B2, “Organometallic complex, composition and light emitting element including the organometallic complex” (Semiconductor Energy Laboratory Co., Ltd., priority 2007, dated 2015).

The nature of data set [1]: solubility test in various solvents. Type of data set: physicochemical. Conditions: for solubility in dimethylformamide (DMF) / solubility x, Solvents not having aromatic ring DMF: solvent DMF; for solubility in chloroform / solubility x, Solvents not having aromatic ring chloroform: solvent chloroform; for solubility in dioxane / solubility x, Ethers dioxane: solvent dioxane; for solubility in toluene / solubility x, sovents having aromatic ring toluene: solvent toluene. The method, then:
In this Example, the solubility of an organometallic complex including a pyrazine skeleton described in Embodiment Mode 1 was measured. The measurement was performed by examining the solubility in various solvents: 2-ethoxyethanol, isopropanol, and ethanol, which are alcohols; dioxane, which is ether; chloroform and dimethylformamide (DMF), which are an organic solvent not including an aromatic ring; and toluene, which is an aromatic hydrocarbon-based solvent.
Among the complexes disclosed in Embodiment Mode 1, [Ir(tppr)2(dpm)] represented by the structural formula (147), which was synthesized in Example 1, is selected as a measurement object. The solubility was investigated. […]

Data set [2] in a line: decomposition temperature by differential thermal balance (TG-DTA). Type of data set: physicochemical. Conditions: temperature increase rate 10° C./min, normal atmospheric pressure. The method, then: The decomposition temperature of the obtained organometallic complex of the present invention, [Ir(tppr)2(dpm)], was measured with a high vacuum differential type differential thermal balance (TG-DTA2410SA, manufactured by Bruker AXS K.K.). The temperature increase rate was 10° C./min, and the temperature was increased under normal atmospheric pressure.

Turning to “bis(2,3,5-triphenylpyrazinato)(dipivaloylmethanato)iridium(III) [Ir(tppr)2(dpm)]”, the “solubility x, Alcohols 2-ethoxyethanol” value in data set [1] (solvent 2-ethoxyethanol) is given as “⊚ (x ≧ 1.2)”. Moreover, in data set [1], the “solubility in dimethylformamide (DMF)” value was no less than 1200 µg/mL; the “solubility x, Solvents not having aromatic ring DMF” value is “⊚ (x ≧ 1.2)”; the solubility in chloroform was no less than 1200 µg/mL; the “solubility x, Solvents not having aromatic ring chloroform” value is “⊚ (x ≧ 1.2)”. Besides, in data set [1], the solubility in dioxane is no less than 1200 µg/mL; the “solubility x, Ethers dioxane” value was “⊚ (x ≧ 1.2)”; the solubility in toluene was no less than 600 µg/mL; the “solubility x, sovents having aromatic ring toluene” value is “Δ (0.9 > x ≧ 0.6)”. Also, in data set [1] (solvent ethanol), the solubility in ethanol is no less than 600 µg/mL and the “solubility x, Alcohols ethanol” value was “Δ (0.9 > x ≧ 0.6)”. In addition, in data set [1] (solvent isopropanol), the solubility in isopropanol was no less than 600 µg/mL and the “solubility x, Alcohols isopropanol” value was “Δ (0.9 > x ≧ 0.6)”. The “decomposition temperature (reduction in weight by 5%)” value in data set [2] worked out at 327 °C.
“bis(2,3,5-triphenylpyrazinato)(pivaloyltrifluoroacetonato)iridium(III) [Ir(tppr)2(pFac)]”: in data set [1], the “solubility in dimethylformamide (DMF)” value is no less than 1200 µg/mL; the “solubility x, Solvents not having aromatic ring DMF” value is “⊚ (x ≧ 1.2)”; the solubility in chloroform was no less than 1200 µg/mL; the “solubility x, Solvents not having aromatic ring chloroform” value is given as “⊚ (x ≧ 1.2)”. For the same substance, in data set [1], the solubility in dioxane was no less than 1200 µg/mL; the “solubility x, Ethers dioxane” value is reported as “⊚ (x ≧ 1.2)”; the solubility in toluene is no less than 1200 µg/mL; the “solubility x, sovents having aromatic ring toluene” value was “⊚ (x ≧ 1.2)”.
